Data taken from publication PMC4366261, “Characterization of the Intestinal Absorption of Seven Flavonoids from the Flowers of Trollius chinensis Using the Caco-2 Cell Monolayer Model” (PLoS ONE, 2015).
Where “and” joins values, the source holds several entries; their conditions need not be identical. Equal entries are not always repeated.

Tests used:
Caco-2 cells = experiment: MTT assay, survival rate of Caco-2 cells; assay type: cell-based, human; settings: 4 h
Text: The human colon adenocarcinoma cell line Caco-2 (No. 3111C0001CCC000100, passage 32) was obtained from the Cell Resource Center, Peking Union Medical College (the headquarters of National Infrastructure of Cell Line Resource, NSTI) on May 3rd, 2013. The cell line was checked free of mycoplasma contamination by PCR and culture, its species origin was confirmed with PCR, and its identity was authenticated with STR profiling (FBI, CODIS). All results of the above tests can be viewed on the website (http://cellresource.cn). The cells were cultured in 25 cm^2 flasks in DMEM medium supplemented with 10% (v/v) FBS, 1% (v/v) NEAA, and 1% (v/v) penicillin-streptomycin, in an atmosphere of 5% CO2 at 37°C and constant moisture. The culture medium was replaced every 2 to 3 days, and the cells were split 1:2 or 1:3 as 80% confluence was obtained.
Caco-2 cells at logarithmic growth phase were seeded into 96-well plates and incubated at 37°C in an atmosphere of 5% CO2 and constant moisture in the incubator. After the cells reached confluence, they were cultured in quadruplicate with 100 μL of HBSS solution (negative control) and compound-containing HBSS solution (seven flavonoids or paclitaxel (positive control) at the concentrations of 25, 50, and 100 μmol/L, respectively) for 4 h. Then, HBSS solution was replaced by 100 μL of MTT solution (0.5 mg/mL), and the supernatant was discarded after 4 h of incubation at 37°C. The cells were shaken with 150 μL of DMSO for 10 min, and the absorbance was read on the microplate reader at 570 nm. The survival rate %=A¯/A0¯×100 , wherein A¯ was the average absorbance value of treatment or positive control group, and A0¯ was the average absorbance value of negative control group.

[1] = Transport experiment across Caco-2 cell monolayer (Papp); assay type: in vitro ADME, human; settings: human, 50 μmol/L, 90 min
Description: (§1) For cells differentiation to form a confluent monolayer, Caco-2 cells were seeded into the inserts of the 12-well Transwell plates at the density of 1.0×10^5 cells/cm^2. The culture medium was replaced on every other day in the first week, and then at daily intervals for the apical (AP) side and 2 days intervals for the basal (BL) side until the transport experiment was performed 21 days after seeding. The AP and BL sides contained 0.5 and 1.5 mL of culture medium, respectively. […] The cell inserts were considered as qualified only if the resistance reached above 600 Ω cm^2.
(§2) On day 21, the transport experiment was initiated by removal of the culture medium from AP and BL sides. The Caco-2 monolayers were rinsed twice with pre-warmed Hanks balanced salt solution (HBSS) and were incubated with the same solution at 37°C for 30 min. The seven individual test compounds and an equimolar mixture of them were pre-dissolved in DMSO, and then diluted to 25, 50, and 100 μmol/L with an appropriate volume of HBSS to allow the final concentration of DMSO to be less than 1%. The test compounds were added to the AP (0.5 mL) or BL side (1.5 mL), while the receiving chamber contained the corresponding volume of HBSS. Incubation was performed at 37°C for 180 min, with shaking at 50 rpm. At 30, 60, 90, 120, 150, and 180 min, each 0.2 mL of the solution from BL or AP side was collected, and replaced with an equal volume of HBSS. The samples were frozen immediately and stored below-20°C before analysis.
(§3) The apparent permeability coefficients (Papp) were determined in this study by HPLC quantification of the compounds in the receiver chamber after transport across the Caco-2 monolayer. The calculation was carried out in accordance with the formula Papp = (dQ/dt)×(1/A)×(1/C0), wherein dQ/dt was the rate of appearance of the test compound in the receiver compartment (μmol/s); C0 was the initial concentration of test compound in the donor compartment (μmol/mL); and A was the surface area of the Caco-2 monolayer (cm^2). The percentage transported (%) was calculated using the formula % transported = QB/(CS×VD)×100, wherein QB was the quantity of compound in the receiver compartment (μmol); CS was the concentration of test compound in the donor compartment (μmol/mL); VD was the liquid volume of the donor compartment (mL). The transport rate (μmol/h/cm^2) was calculated using the formula transport rate = QB/(t×A), wherein QB was the quantity of compound in the receiver compartment (μmol); t was the incubation time (h); A was the surface area of the Caco-2 monolayer (cm^2).

Caco-2 cell monolayer = experiment: as above; assay type: in vitro ADME, human; settings: for Absorption mechanism: from P ratio, time course and concentration course; for P ratio Papp AP→BL/Papp BL→AP: 90 min
Description: as §1, §2, §3

[2] = Stability of sample solutions at room temperature by HPLC; assay type: physicochemical; settings: sample solution at room temperature, HPLC at 0, 1, 2, 4, 6, 12 and 24 h
Description: The intra-day precision was determined by investigating the analytes in sextuplicates during a single day, and the inter-day precision was determined by conducting the intra-day experiment on two consecutive days. […] Each one sample solution of the seven flavonoids was kept at room temperature, and then their stabilities were determined by injecting them into apparatus at 0, 1, 2, 4, 6, 12, and 24 h.

murine ear edema model = settings: cited from earlier work
influenza virus A = tested on: influenza virus A; set-up: method as in PMID 17193271; settings: cited from earlier work
P-glycoprotein (P-gp) = target: T1, P-glycoprotein (P-gp) (Homo sapiens, UniProt P08183); experiment: Transporter inhibition experiment with verapamil hydrochloride (P-gp) in Caco-2 monolayer; assay type: in vitro ADME; settings: 50 μmol/L compound, 100 μmol/L verapamil hydrochloride, AP to BL
T1 construct: endogenous in cells; host or cells: Caco-2 cells
Description: (§4) On day 21, transport study was initiated by carefully removing the culture medium from both AP and BL sides. The Caco-2 monolayers were rinsed twice with pre-warmed HBSS and were incubated with the same solution at 37°C for 30 min. […] The final concentration of DMSO in these solutions was less than 1%. […] Incubation was performed at 37°C for 180 min, with shaking at 50 rpm. […] The samples were frozen immediately and stored below-20°C before analysis.

[3] = target: T2, multidrug resistance protein 2 (MRP2) (Homo sapiens, UniProt Q92887); experiment: Transporter inhibition experiment with probenecid (MRP2) in Caco-2 monolayer; assay type: in vitro ADME; settings: 50 μmol/L compound, 600 μmol/L probenecid, AP to BL
T2 construct: endogenous in cells; host or cells: Caco-2 cells
Description: as §4

[4] = Caco-2, in the equimolar mixture of the seven flavonoids
[5] = in the equimolar mixture of the seven flavonoids, 50 μmol/L

T2 sequence (Q92887 whole entry): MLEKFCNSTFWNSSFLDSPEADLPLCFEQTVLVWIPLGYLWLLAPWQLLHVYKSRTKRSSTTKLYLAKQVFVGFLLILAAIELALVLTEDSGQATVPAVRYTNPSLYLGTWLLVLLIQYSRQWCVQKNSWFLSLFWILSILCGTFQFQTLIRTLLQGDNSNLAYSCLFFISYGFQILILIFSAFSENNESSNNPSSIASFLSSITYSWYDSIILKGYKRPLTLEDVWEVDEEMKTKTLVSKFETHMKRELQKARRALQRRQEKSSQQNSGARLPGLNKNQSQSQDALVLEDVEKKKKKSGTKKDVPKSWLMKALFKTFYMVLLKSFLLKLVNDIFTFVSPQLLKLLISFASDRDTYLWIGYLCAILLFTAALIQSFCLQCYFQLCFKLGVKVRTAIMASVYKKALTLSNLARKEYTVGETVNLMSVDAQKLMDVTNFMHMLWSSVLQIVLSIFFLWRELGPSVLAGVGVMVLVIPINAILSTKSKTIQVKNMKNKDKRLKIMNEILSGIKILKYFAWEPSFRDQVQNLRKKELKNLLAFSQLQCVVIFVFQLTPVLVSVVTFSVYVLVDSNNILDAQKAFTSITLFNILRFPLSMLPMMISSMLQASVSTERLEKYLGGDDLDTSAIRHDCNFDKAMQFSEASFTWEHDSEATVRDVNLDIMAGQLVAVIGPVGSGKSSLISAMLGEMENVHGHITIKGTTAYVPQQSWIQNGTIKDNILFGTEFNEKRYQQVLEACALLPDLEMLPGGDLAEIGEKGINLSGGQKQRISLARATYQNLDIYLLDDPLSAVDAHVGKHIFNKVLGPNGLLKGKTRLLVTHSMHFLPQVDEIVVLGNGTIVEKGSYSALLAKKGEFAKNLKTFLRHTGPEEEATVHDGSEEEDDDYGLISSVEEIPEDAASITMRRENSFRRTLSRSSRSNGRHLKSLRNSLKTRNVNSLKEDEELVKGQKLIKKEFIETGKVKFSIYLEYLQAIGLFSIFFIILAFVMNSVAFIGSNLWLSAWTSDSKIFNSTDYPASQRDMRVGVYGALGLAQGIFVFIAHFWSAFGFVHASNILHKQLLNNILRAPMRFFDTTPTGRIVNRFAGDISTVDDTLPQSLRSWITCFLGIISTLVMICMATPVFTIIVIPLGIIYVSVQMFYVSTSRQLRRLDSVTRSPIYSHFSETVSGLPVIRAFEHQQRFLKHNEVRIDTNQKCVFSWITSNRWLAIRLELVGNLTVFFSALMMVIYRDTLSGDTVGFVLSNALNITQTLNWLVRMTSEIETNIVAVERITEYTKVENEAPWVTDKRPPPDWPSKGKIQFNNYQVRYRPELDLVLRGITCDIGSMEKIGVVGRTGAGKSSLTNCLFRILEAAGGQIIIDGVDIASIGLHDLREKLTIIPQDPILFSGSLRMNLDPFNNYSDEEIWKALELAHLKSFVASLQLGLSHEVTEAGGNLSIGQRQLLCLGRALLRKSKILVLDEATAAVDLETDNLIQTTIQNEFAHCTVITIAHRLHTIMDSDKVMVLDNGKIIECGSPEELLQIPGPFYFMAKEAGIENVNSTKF
T1 sequence (P08183 whole entry): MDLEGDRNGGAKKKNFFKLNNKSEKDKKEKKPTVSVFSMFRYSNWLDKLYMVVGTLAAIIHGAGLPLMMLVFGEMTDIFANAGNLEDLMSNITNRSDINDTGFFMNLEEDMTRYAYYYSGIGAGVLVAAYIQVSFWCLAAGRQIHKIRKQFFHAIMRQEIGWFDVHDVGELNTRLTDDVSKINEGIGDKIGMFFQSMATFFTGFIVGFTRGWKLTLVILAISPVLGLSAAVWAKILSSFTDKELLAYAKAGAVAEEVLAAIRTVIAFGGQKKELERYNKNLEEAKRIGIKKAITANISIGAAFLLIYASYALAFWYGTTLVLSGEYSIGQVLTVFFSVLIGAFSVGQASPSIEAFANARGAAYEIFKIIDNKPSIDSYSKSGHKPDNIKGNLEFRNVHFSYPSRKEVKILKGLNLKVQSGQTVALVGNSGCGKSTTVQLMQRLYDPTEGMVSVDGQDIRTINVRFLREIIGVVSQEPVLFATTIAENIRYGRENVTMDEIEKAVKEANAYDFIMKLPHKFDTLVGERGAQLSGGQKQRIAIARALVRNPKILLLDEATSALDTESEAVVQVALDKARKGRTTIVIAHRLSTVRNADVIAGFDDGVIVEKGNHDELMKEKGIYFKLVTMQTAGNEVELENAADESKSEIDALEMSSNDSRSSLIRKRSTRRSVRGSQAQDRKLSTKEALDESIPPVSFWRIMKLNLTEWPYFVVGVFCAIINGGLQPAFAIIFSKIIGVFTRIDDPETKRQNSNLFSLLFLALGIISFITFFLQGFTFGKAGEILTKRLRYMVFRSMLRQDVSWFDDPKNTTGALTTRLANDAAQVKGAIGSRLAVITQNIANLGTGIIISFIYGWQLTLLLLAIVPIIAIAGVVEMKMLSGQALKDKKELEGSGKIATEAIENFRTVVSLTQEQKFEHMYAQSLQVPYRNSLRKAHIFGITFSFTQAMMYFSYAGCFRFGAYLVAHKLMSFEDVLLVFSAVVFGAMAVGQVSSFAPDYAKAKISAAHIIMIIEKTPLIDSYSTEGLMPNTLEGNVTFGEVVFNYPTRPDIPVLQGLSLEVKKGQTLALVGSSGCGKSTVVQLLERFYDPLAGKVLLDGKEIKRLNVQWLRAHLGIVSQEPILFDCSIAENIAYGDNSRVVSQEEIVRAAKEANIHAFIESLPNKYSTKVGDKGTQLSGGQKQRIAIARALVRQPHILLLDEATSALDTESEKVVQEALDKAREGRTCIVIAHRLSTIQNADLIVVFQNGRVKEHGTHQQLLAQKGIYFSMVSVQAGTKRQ

Compound: CCC(C)C(=O)O[C@@H]1[C@@H](O)[C@H](O)[C@@H](CO)O[C@H]1c1c(OC)cc(O)c2c(=O)cc(-c3ccc(O)cc3)oc12 (stereo partly drawn) [2”-O-(2”‘-methylbutanoyl)isoswertisin, (2S,3R,4S,5S,6R)-4,5-dihydroxy-2-(5-hydroxy-2-(4-hydroxyphenyl)-7-methoxy-4-oxo-4H-chromen-8-yl)-6-(hydroxymethyl)tetrahydro-2H-pyran-3-yl 2-methylbutanoate]
- Survival rates (%) (Caco-2 cells; 25 μmol/L): 108.8±10.3%
- Survival rates (%) (Caco-2 cells; 50 μmol/L): 127.6±4.9%
- Survival rates (%) (Caco-2 cells; 100 μmol/L): 128.9±12.5%
- Papp A→B at 90 min, 50 μmol/L [1, 4]: 3.49 ± 0.47 ×10⁻⁶ cm/s
- Papp B→A at 90 min, 50 μmol/L [1, 4]: 13.7 ± 1.14 ×10⁻⁶ cm/s
- Papp A→B at 90 min, 50 μmol/L ([1]; Caco-2, individual compound): 4.5 ± 0.03 ×10⁻⁶ cm/s
- Papp B→A at 90 min, 50 μmol/L ([1]; Caco-2, individual compound): 4.8 ± 0.53 ×10⁻⁶ cm/s
- Transport percentage BL to AP in the equimolar mixture compared with individual state (Caco-2 cell monolayer; 50 μmol/L): increased almost twice
- Absorbability assessment based on bidirectional Papp values (Caco-2 cell monolayer; compared with atenolol and propranolol): moderate absorbable compound
- Absorption mechanism (Caco-2 cell monolayer): passive diffusion without participation of transporter
- P ratio Papp AP→BL/Papp BL→AP (Caco-2 cell monolayer; [5]): 0.25
- P ratio Papp AP→BL/Papp BL→AP (Caco-2 cell monolayer; individual compound, 50 μmol/L): ~1 and 0.94
- RSD% values for 24-hour stability [2]: 3.89%
- Inhibitory rate on murine ear edema model (murine ear edema model): 35.5%
- Effect against influenza virus A (influenza virus A): had an effect

Compound: O=c1cc(-c2ccc(O)c(O)c2)oc2c([C@@H]3O[C@H](CO)[C@@H](O)[C@H](O)[C@H]3O[C@@H]3O[C@H](CO)[C@H](O)[C@H](O)[C@H]3O)c(O)cc(O)c12 [2”-O-β-L-galactopyranosylorientin, 8-((2S,3R,4S,5S,6R)-4,5-dihydroxy-6-(hydroxymethyl)-3-(((2S,3R,4S,5R,6R)-3,4,5-trihydroxy-6-(hydroxymethyl)tetrahydro-2H-pyran-2-yl)oxy)tetrahydro-2H-pyran-2-yl)-2-(3,4-dihydroxyphenyl)-5,7-dihydroxy-4H-chromen-4-one]
- Survival rates (%) (Caco-2 cells; 25 μmol/L): 111.0±9.1%
- Survival rates (%) (Caco-2 cells; 50 μmol/L): 104.7±2.7%
- Survival rates (%) (Caco-2 cells; 100 μmol/L): 102.7±7.7%
- Papp A→B at 90 min, 50 μmol/L [1, 4]: 1.31 ± 0.38 ×10⁻⁶ cm/s
- Papp B→A at 90 min, 50 μmol/L [1, 4]: 0.69 ± 0.26 ×10⁻⁶ cm/s
- Papp A→B at 90 min, 50 μmol/L ([1]; Caco-2, individual compound): 1.84 ± 0.01 ×10⁻⁶ cm/s
- Papp B→A at 90 min, 50 μmol/L ([1]; Caco-2, individual compound): 4.58 ± 0.18 ×10⁻⁶ cm/s
- Absorption mechanism (Caco-2 cell monolayer): transporter mediated efflux in addition to passive diffusion
- P ratio Papp AP→BL/Papp BL→AP (Caco-2 cell monolayer; [5]): 1.90
- P ratio Papp AP→BL/Papp BL→AP (Caco-2 cell monolayer; individual compound, 50 μmol/L): 0.40
- Substrate of P-gp (P-glycoprotein (P-gp)): nonsubstrates of P-gp
- Effect of verapamil hydrochloride on the transport (P-glycoprotein (P-gp); 180 min): had no effect
- Substrate of MRP2 [3]: substrate of MRP2
- Effect of probenecid on the transport ([3]; 180 min): significantly promoted
- RSD% values for 24-hour stability [2]: 2.86%
